Measurements reported in PubChem BioAssay (NCI).
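Cultured in 96-well plates, cells were exposed to test compound for 48 hours across five concentrations. At the TGI there is no net growth.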

Assays:
Assay in all cases: growth of human tumour cells (NCI), 48 h
786-0 renal = tested on: 786-0 renal
A498 renal = tested on: A498 renal
A549 NSCLC = tested on: A549 NSCLC
ACHN renal = tested on: ACHN renal
CAKI-1 renal = tested on: CAKI-1 renal
CCRF-CEM leukemia = tested on: CCRF-CEM leukemia
COLO 205 colon = tested on: COLO 205 colon
DLD-1 colon = tested on: DLD-1 colon
DMS 114 small cell lung = tested on: DMS 114 small cell lung
DMS 273 small cell lung = tested on: DMS 273 small cell lung
EKVX NSCLC = tested on: EKVX NSCLC
HCC-2998 colon = tested on: HCC-2998 colon
HCT-116 colon = tested on: HCT-116 colon
HCT-15 colon = tested on: HCT-15 colon
HOP-18 NSCLC = tested on: HOP-18 NSCLC
HOP-62 NSCLC = tested on: HOP-62 NSCLC
HOP-92 NSCLC = tested on: HOP-92 NSCLC
HT29 colon = tested on: HT29 colon
IGROV1 ovarian = tested on: IGROV1 ovarian
K-562 leukemia = tested on: K-562 leukemia
KM12 colon = tested on: KM12 colon
KM20L2 colon = tested on: KM20L2 colon
LOX IMVI melanoma = tested on: LOX IMVI melanoma
LXFL 529 NSCLC = tested on: LXFL 529 NSCLC
M14 melanoma = tested on: M14 melanoma
M19-MEL melanoma = tested on: M19-MEL melanoma
MALME-3M melanoma = tested on: MALME-3M melanoma
MOLT-4 leukemia = tested on: MOLT-4 leukemia
NCI-H226 lung = tested on: NCI-H226 lung
NCI-H23 lung = tested on: NCI-H23 lung
NCI-H460 lung = tested on: NCI-H460 lung
NCI-H522 lung = tested on: NCI-H522 lung
OVCAR-3 ovarian = tested on: OVCAR-3 ovarian
OVCAR-4 ovarian = tested on: OVCAR-4 ovarian
OVCAR-5 ovarian = tested on: OVCAR-5 ovarian
OVCAR-8 ovarian = tested on: OVCAR-8 ovarian
RPMI-8226 leukemia = tested on: RPMI-8226 leukemia
RXF 393 renal = tested on: RXF 393 renal
RXF-631 renal = tested on: RXF-631 renal
SF-268 CNS = tested on: SF-268 CNS
SF-539 CNS = tested on: SF-539 CNS
SK-MEL-2 melanoma = tested on: SK-MEL-2 melanoma
SK-MEL-28 melanoma = tested on: SK-MEL-28 melanoma
SK-MEL-5 melanoma = tested on: SK-MEL-5 melanoma
SK-OV-3 ovarian = tested on: SK-OV-3 ovarian
SN12C renal = tested on: SN12C renal
SNB-19 CNS = tested on: SNB-19 CNS
SNB-75 CNS = tested on: SNB-75 CNS
SNB-78 CNS = tested on: SNB-78 CNS
SW-620 colon = tested on: SW-620 colon
TK-10 renal = tested on: TK-10 renal
U251 CNS = tested on: U251 CNS
UACC-257 melanoma = tested on: UACC-257 melanoma
UACC-62 melanoma = tested on: UACC-62 melanoma
UO-31 renal = tested on: UO-31 renal
XF 498 CNS = tested on: XF 498 CNS
HL-60(TB) leukemia = tested on: HL-60(TB) leukemia
SF-295 CNS = tested on: SF-295 CNS

Measured: TGI

COC(=O)c1ccccc1NC(=O)C(=O)Cc1nc2c3c(ccc2[nH]c1=O)C(=O)c1ccccc1C3=O
62.1 µM: A549 NSCLC
98 µM: OVCAR-4 ovarian
99.1 µM: IGROV1 ovarian
92.9 µM: HOP-92 NSCLC
62.8 µM: UACC-257 melanoma
35.9 µM: U251 CNS
58.1 µM: DMS 273 small cell lung
74.2 µM: 786-0 renal
44.6 µM: LOX IMVI melanoma
23.9 µM: M19-MEL melanoma
43 µM: HCC-2998 colon
55.7 µM: SW-620 colon
39.1 µM: HOP-62 NSCLC
13.6 µM: SK-MEL-5 melanoma
91.7 µM: XF 498 CNS
35.7 µM: NCI-H522 lung
96.4 µM: TK-10 renal
16.7 µM: NCI-H226 lung
31 µM: MALME-3M melanoma
99.6 µM: MOLT-4 leukemia
82.1 µM: EKVX NSCLC
67.9 µM: SF-268 CNS
47.2 µM: NCI-H23 lung
> 100 µM: A498 renal | ACHN renal | CAKI-1 renal | CCRF-CEM leukemia | COLO 205 colon | DLD-1 colon | DMS 114 small cell lung | HCT-15 colon | HOP-18 NSCLC | HT29 colon | K-562 leukemia | KM12 colon | KM20L2 colon | LXFL 529 NSCLC | M14 melanoma | NCI-H460 lung | OVCAR-3 ovarian | OVCAR-5 ovarian | OVCAR-8 ovarian | RPMI-8226 leukemia | RXF-631 renal | SF-539 CNS | SK-MEL-2 melanoma | SK-MEL-28 melanoma | SK-OV-3 ovarian | SN12C renal | SNB-19 CNS | SNB-75 CNS | SNB-78 CNS | UO-31 renal
20.4 µM: UACC-62 melanoma
26.3 µM: RXF 393 renal
34.7 µM: HCT-116 colon

Cc1cc(N(CCC#N)CCC#N)ccc1N=Nc1ccc(S(N)(=O)=O)cc1
> 100 µM: 786-0 renal | A498 renal | A549 NSCLC | ACHN renal | CAKI-1 renal | CCRF-CEM leukemia | COLO 205 colon | DLD-1 colon | DMS 114 small cell lung | DMS 273 small cell lung | EKVX NSCLC | HCC-2998 colon | HCT-15 colon | HL-60(TB) leukemia | HOP-18 NSCLC | HOP-62 NSCLC | HT29 colon | IGROV1 ovarian | K-562 leukemia | KM12 colon | LOX IMVI melanoma | LXFL 529 NSCLC | M14 melanoma | MALME-3M melanoma | MOLT-4 leukemia | NCI-H226 lung | NCI-H23 lung | NCI-H522 lung | OVCAR-3 ovarian | OVCAR-4 ovarian | OVCAR-5 ovarian | OVCAR-8 ovarian | RPMI-8226 leukemia | RXF 393 renal | RXF-631 renal | SF-268 CNS | SF-295 CNS | SF-539 CNS | SK-MEL-2 melanoma | SK-MEL-28 melanoma | SK-MEL-5 melanoma | SK-OV-3 ovarian | SN12C renal | SNB-19 CNS | SNB-75 CNS | SNB-78 CNS | SW-620 colon | TK-10 renal | U251 CNS | UACC-257 melanoma | UACC-62 melanoma | UO-31 renal | XF 498 CNS

O=C(CC(=O)c1cccc2ccccc12)C(=O)Nc1ccc(Cl)cc1
> 100 µM: 786-0 renal | A498 renal | A549 NSCLC | ACHN renal | CAKI-1 renal | CCRF-CEM leukemia | COLO 205 colon | DLD-1 colon | DMS 114 small cell lung | DMS 273 small cell lung | EKVX NSCLC | HCC-2998 colon | HCT-116 colon | HCT-15 colon | HL-60(TB) leukemia | HOP-18 NSCLC | HOP-62 NSCLC | HOP-92 NSCLC | HT29 colon | IGROV1 ovarian | K-562 leukemia | KM12 colon | KM20L2 colon | LOX IMVI melanoma | LXFL 529 NSCLC | M14 melanoma | M19-MEL melanoma | MALME-3M melanoma | MOLT-4 leukemia | NCI-H226 lung | NCI-H23 lung | NCI-H460 lung | NCI-H522 lung | OVCAR-3 ovarian | OVCAR-4 ovarian | OVCAR-5 ovarian | OVCAR-8 ovarian | RPMI-8226 leukemia | RXF-631 renal | SF-268 CNS | SF-295 CNS | SF-539 CNS | SK-MEL-5 melanoma | SK-OV-3 ovarian | SN12C renal | SNB-19 CNS | SNB-78 CNS | SW-620 colon | TK-10 renal | U251 CNS | UACC-257 melanoma | UACC-62 melanoma | UO-31 renal | XF 498 CNS
